# Assay results: patent US8937091B2 (Japan Science and Technology Agency, priority 2009, dated 2015)
# Like-named read-outs stand apart in the source and are kept apart here.
# How the values were obtained:
# [1] = target: TGase (Cavia porcellus, UniProt P08587); format: biochemical; details: for TG level: level with DMSO control designated as 100
# Description: An enzyme reaction solution (0.1 ml) (100 mM HEPES-NaOH, pH 7.5, 1 mM CaCl2, 20 μM monodansyl cadaverine, 0.05 mg/ml N,N-dimethylcasein, 5 μg/ml TGase) was introduced into wells of a 96-well plate (Nunc, 96 Well Black Plate with Clear Bottom). A test compound was added in concentrations of 0.3, 1.0, 3.0, 10, and 30 μM. The solution and the compound were sufficiently mixed while preventing foaming. The plate was set in the fluorescence drug screening system FDSS 3000 (Hamamatsu Photonics K.K.). TGase-inhibiting activity of the compound was calculated by assaying changes in fluorescence wavelength (at 340 nm) per unit time. […] The assay level at which TGase activity decreased by half in the presence of the test compound was designated as TG 50.
# Hereafter, the numerals in parentheses written after the TG level, the SOCE level, and the IICR level correspond to the test compound concentrations. The number following the name of each title compound used in the Examples below represents a compound ID number designated arbitrarily by the present inventors.
# [2] = system: IICR (IP3 induced calcium release) in CHO cells; assay: Assay of IICR (IP3 induced calcium release)-inhibiting action; format: cell-based, Chinese hamster; details: for inhibition at 10 µM / inhibition at 30 µM / inhibition at 100 µM: Cricetulus griseus, CHO, CHO cells, 10 μM ATP, read-out: IICR level (percentage of inhibition); for inhibition at 10 µM: test compound 10 μmol; for inhibition at 30 µM: test compound 30 μmol; for inhibition at 100 µM: test compound 100 μmol
# Outline: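 Inhibition (%) of the intracellular calcium increase triggered by 10 μM ATP, measured in CHO cells in BSS with calcium. Compound given 1 min after the buffer exchange and 2 min before ATP; values reported per compound concentration.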
# [3] = system: SOCE (store operated calcium entry) in CHO cells; assay: Assay of SOCE (store operated calcium entry)-inhibiting action; format: cell-based, Chinese hamster; details: Cricetulus griseus, CHO, CHO cells, thapsigargin, read-out: SOCE level (percentage of inhibition); for inhibition at 10 µM: test compound 10 μmol; for inhibition at 30 µM: test compound 30 μmol; for inhibition at 100 µM: test compound 100 μmol
# Outline: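 CHO cells in calcium-free BSS received compound, then 1 μM thapsigargin 2 min later to deplete stores; after 9 min, 2 mM calcium chloride (final) added. Percent inhibition of the rise in intracellular calcium determined at various compound concentrations.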
compound,measurement,setting,value
"C=CC(=O)c1ccc2c(C)cccc2c1 [Example 8211, 1-methyl-6-acryloylnaphthalene]",TG-activity-inhibiting action or protein-crosslinking-inhibiting action (in words),[1],high
Methyl vinylketone [Example 57],TG level,[1]; test compound 3 μmol,84
same,TG level,[1]; test compound 10 μmol,94
same,TG level,[1]; test compound 30 μmol,37
"CCN(CCC(=O)c1ccco1)Cc1ccccc1 [Example 8412, 2-(N-benzylethyl)aminoethyl-2-furylketone]",IICR-inhibiting activity compared with SOCE-inhibiting activity (in words),[2],higher than SOCE-inhibiting activity
same,TG-activity-inhibiting action or protein-crosslinking-inhibiting action (in words),[1],strongly
"Cc1ccc(C(=O)CCN(CCO)Cc2ccccc2)o1 [Example 8404, 2-(N-benzylhydroxyethyl)aminoethyl-5-methyl-2-furylketone]",IICR-inhibiting activity compared with SOCE-inhibiting activity (in words),[2],higher than SOCE-inhibiting activity
same,TG-activity-inhibiting action or protein-crosslinking-inhibiting action (in words),[1],strongly
"CCC(C)N(CCC(=O)c1ccc(Br)s1)C(C)CC (stereo not shown) [Example 8849, 2-(N,N-di-sec-butyl)aminoethyl-5-bromo-2-thienylketone]",IICR-inhibiting activity compared with SOCE-inhibiting activity (in words),[2],higher than SOCE-inhibiting activity
same,TG-activity-inhibiting action or protein-crosslinking-inhibiting action (in words),[1],strongly
"CC(C)(C)N(CCC(=O)c1ccc(Cl)s1)Cc1ccccc1 [Example 8756, 2-(N-t-butylbenzyl)aminoethyl-5-chloro-2-thienylketone]",IICR-inhibiting activity compared with SOCE-inhibiting activity (in words),[2],higher than SOCE-inhibiting activity
same,TG-activity-inhibiting action or protein-crosslinking-inhibiting action (in words),[1],strongly
"CN(CCC(=O)c1ccncc1)Cc1ccccc1 [Example 8673, 2-(N-methylbenzyl)aminoethyl-4-pyridylketone]",IICR-inhibiting activity compared with SOCE-inhibiting activity (in words),[2],higher than SOCE-inhibiting activity
same,TG-activity-inhibiting action or protein-crosslinking-inhibiting action (in words),[1],strongly
"CC(C)(C)N(CCC(=O)c1ccc(C#N)cc1)Cc1ccccc1 [Example 8789, 2-(N-t-butylbenzyl)aminoethyl-4-cyanophenylketone]",IICR-inhibiting activity compared with SOCE-inhibiting activity (in words),[2],higher than SOCE-inhibiting activity
same,TG-activity-inhibiting action or protein-crosslinking-inhibiting action (in words),[1],strongly
"CC(C)N(CCC(=O)c1ccc(C#N)cc1)Cc1ccccc1 [Example 8803, 2-(N-benzylisopropyl)aminoethyl-4-cyanophenylketone]",IICR-inhibiting activity compared with SOCE-inhibiting activity (in words),[2],higher than SOCE-inhibiting activity
same,TG-activity-inhibiting action or protein-crosslinking-inhibiting action (in words),[1],strongly
"CC(C)N(CCC(=O)c1cc2ccccc2s1)Cc1ccccc1 [Example 8759, 2-(N-isopropylbenzyl)aminoethyl-2-benzothienylketone]",IICR-inhibiting activity compared with SOCE-inhibiting activity (in words),[2],higher than SOCE-inhibiting activity
same,TG-activity-inhibiting action or protein-crosslinking-inhibiting action (in words),[1],strongly
"CC(C)N(CCC(=O)c1cc(Cl)sc1Cl)Cc1ccccc1 [Example 8659, 2-(N-isopropylbenzyl)aminomethyl-3-(2,5-dichlorothiophenyl)ketone]",IICR-inhibiting activity compared with SOCE-inhibiting activity (in words),[2],higher than SOCE-inhibiting activity
same,TG-activity-inhibiting action or protein-crosslinking-inhibiting action (in words),[1],strongly
"C=CC(=O)c1ccc(Br)cc1 [Example 8266, 1-acryloyl-4-bromobenzene]",TG-activity-inhibiting action or protein-crosslinking-inhibiting action (in words),[1],high
"C=CC(=O)c1ccc2c(F)cccc2c1 [Example 8257, 1-fluoro-6-acryloylnaphthalene]",TG-activity-inhibiting action or protein-crosslinking-inhibiting action (in words),[1],high
"CCCCN(CCO)CCC(=O)c1ccc(Br)s1 [Example 8769, 2-(N-2-hydroxyethylbutyl)aminoethyl-5-bromo-2-thienylketone]",IICR-inhibiting activity compared with SOCE-inhibiting activity (in words),[2],higher than SOCE-inhibiting activity
same,TG-activity-inhibiting action or protein-crosslinking-inhibiting action (in words),[1],strongly
"Cc1nc(C)c(C(=O)CCN(Cc2ccccc2)C(C)C)s1 [Example 8666, 2-(N-benzylisopropyl)aminoethyl-5-(2,4-dimethylthiazolyl)ketone]",IICR-inhibiting activity compared with SOCE-inhibiting activity (in words),[2],higher than SOCE-inhibiting activity
same,TG-activity-inhibiting action or protein-crosslinking-inhibiting action (in words),[1],strongly
"CC(C)N(CCC(=O)c1ccco1)Cc1ccccc1 [Example 8370, 2-(N-isopropylbenzyl)aminoethyl-2-furylketone]",IICR-inhibiting activity compared with SOCE-inhibiting activity (in words),[2],higher than SOCE-inhibiting activity
same,TG-activity-inhibiting action or protein-crosslinking-inhibiting action (in words),[1],strongly
"C=CC(=O)c1ccc2ccccc2c1 [Example 8213, 2-acryloylnaphthalene]",TG-activity-inhibiting action or protein-crosslinking-inhibiting action (in words),[1],high
"Cc1ccc(C(=O)CCN(Cc2ccccc2)C(C)(C)C)o1 [Example 8405, 2-(N-benzyl-t-butyl)aminoethyl-5-methyl-2-furylketone]",IICR-inhibiting activity compared with SOCE-inhibiting activity (in words),[2],higher than SOCE-inhibiting activity
same,TG-activity-inhibiting action or protein-crosslinking-inhibiting action (in words),[1],strongly
2-(N-2-hydroxy-3-aminopropyl)aminoethyl-5-bromo-2-thienylketone [Example 8853],IICR-inhibiting activity compared with SOCE-inhibiting activity (in words),[2],higher than SOCE-inhibiting activity
same,TG-activity-inhibiting action or protein-crosslinking-inhibiting action (in words),[1],strongly
"C=CC(=O)c1ccc(F)cc1 [Example 8186, 4-fluoro-1-acryloylbenzene]",TG-activity-inhibiting action or protein-crosslinking-inhibiting action (in words),[1],high
"C=CC(=O)c1cc2c(cc1Br)OCO2 [Example 8200, 2-bromo-4,5-dioxymethylene-1-acryloylbenzene]",TG-activity-inhibiting action or protein-crosslinking-inhibiting action (in words),[1],high
"C=CC(=O)c1cccc2ccccc12 [Example 8293, 1-acryloylnaphthalene]",TG-activity-inhibiting action or protein-crosslinking-inhibiting action (in words),[1],high
"C=CC(=O)c1ccccc1 [Example 8184, acryloylbenzene]",TG-activity-inhibiting action or protein-crosslinking-inhibiting action (in words),[1],high
"C=CC(=O)c1ccc(C)cc1 [Example 8185, 4-methyl-1-acryloylbenzene]",TG-activity-inhibiting action or protein-crosslinking-inhibiting action (in words),[1],high
"C=CC(=O)C(c1ccccc1)c1ccccc1 [Example 8269, Acryloyldiphenylmethane]",TG-activity-inhibiting action or protein-crosslinking-inhibiting action (in words),[1],high
"CC(C)N(CCC(=O)c1ccco1)Cc1ccccc1 [Example 109, 2-(N-isopropylbenzyl)aminoethyl-2-furylketone]",inhibition at 10 µM,[3],0%
same,inhibition at 30 µM,[3],0%
same,inhibition at 100 µM,[3],10%
same,inhibition at 10 µM,[2],20%
same,inhibition at 30 µM,[2],90%
same,inhibition at 100 µM,[2],70%
"CC(C)N(CCC(=O)c1ccc(-c2ccccc2)cc1)Cc1ccccc1 [Example 297, 2-(N-isopropylbenzyl)aminoethyl-4-biphenylketone]",inhibition at 10 µM,[3],20%
same,inhibition at 30 µM,[3],50%
same,inhibition at 100 µM,[3],60%
same,inhibition at 10 µM,[2],50%
same,inhibition at 30 µM,[2],50%
same,inhibition at 100 µM,[2],90%
"CCN(CCC(=O)c1nccs1)Cc1ccccc1 [Example 289, 2-(N-ethylbenzyl)aminoethyl-2-thiazolylketone]",inhibition at 30 µM,[3],0%
same,inhibition at 100 µM,[3],10%
same,inhibition at 10 µM,[2],40%
same,inhibition at 30 µM,[2],80%
same,inhibition at 100 µM,[2],100%
"CN(CCC(=O)c1ccc[nH]1)Cc1ccccc1 [Example 175, 2-(N-benzylmethyl)aminoethyl-2-pyrrolylketone]",inhibition at 10 µM,[3],0%
same,inhibition at 30 µM,[3],0%
same,inhibition at 100 µM,[3],0%
same,inhibition at 10 µM,[2],10%
same,inhibition at 30 µM,[2],10%
same,inhibition at 100 µM,[2],20%
"CC(CN(CCO)CCO)C(=O)c1ccc(F)cc1 (stereo not shown) [Example 160, 2-(N-bis(hydroxyethyl))amino-1-methylethyl-4-fluorophenylketone]",inhibition at 10 µM,[3],0%
same,inhibition at 30 µM,[3],20%
same,inhibition at 100 µM,[3],60%
same,inhibition at 10 µM,[2],0%
same,inhibition at 30 µM,[2],0%
same,inhibition at 100 µM,[2],20%
"Cc1ccc(C(=O)CCN(Cc2ccccc2)C(C)(C)C)s1 [Example 316, 2-(N-benzyl-t-butyl)aminoethyl-5-methyl-2-thienylketone]",inhibition at 10 µM,[3],0%
same,inhibition at 30 µM,[3],10%
same,inhibition at 100 µM,[3],20%
same,inhibition at 10 µM,[2],70%
same,inhibition at 30 µM,[2],80%
same,inhibition at 100 µM,[2],100%
"O=C(CCN(CCO)CCO)c1ccncc1 [Example 249, 2-(N-bis-2-hydroxyethyl)aminoethyl-4-pyridylketone]",inhibition at 10 µM,[3],0%
same,inhibition at 30 µM,[3],0%
same,inhibition at 100 µM,[3],20%
same,inhibition at 10 µM,[2],0%
same,inhibition at 30 µM,[2],60%
same,inhibition at 100 µM,[2],80%
